Source: US10703756B2, “Pyrrolo[2,3-D]pyrimidinyl, pyrrolo[2,3-B]pyrazinyl, pyrrolo[2,3-B]pyridinyl acrylamides and epoxides thereof” (Pfizer Inc., priority 2015, dated 2020)
Like-named read-outs stand apart in the source and are kept apart here.

Key:
[1] = test system: IL-15 induced P-STAT5 in human PBMC; assay: PBMC IL-15 Induced P-STAT5; format: cell-based
How it was run: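 Flow cytometry gated on total lymphocytes measured STAT5 staining (Alexa Fluor 647 antibody, overnight, 4 °C) in fixed, methanol-permeabilised human PBMC. Cells had received compound for 15 min at 37 °C (0.2% DMSO final), followed by 41 ng/mL final human IL-15 for 15 min.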

JAK3 enzyme [2] = target: T1, JAK3 enzyme (Homo sapiens, UniProt P52333); assay: JAK Caliper Enzyme Assay at 1 mM ATP; format: biochemical
T1 sequence (P52333 1-1124): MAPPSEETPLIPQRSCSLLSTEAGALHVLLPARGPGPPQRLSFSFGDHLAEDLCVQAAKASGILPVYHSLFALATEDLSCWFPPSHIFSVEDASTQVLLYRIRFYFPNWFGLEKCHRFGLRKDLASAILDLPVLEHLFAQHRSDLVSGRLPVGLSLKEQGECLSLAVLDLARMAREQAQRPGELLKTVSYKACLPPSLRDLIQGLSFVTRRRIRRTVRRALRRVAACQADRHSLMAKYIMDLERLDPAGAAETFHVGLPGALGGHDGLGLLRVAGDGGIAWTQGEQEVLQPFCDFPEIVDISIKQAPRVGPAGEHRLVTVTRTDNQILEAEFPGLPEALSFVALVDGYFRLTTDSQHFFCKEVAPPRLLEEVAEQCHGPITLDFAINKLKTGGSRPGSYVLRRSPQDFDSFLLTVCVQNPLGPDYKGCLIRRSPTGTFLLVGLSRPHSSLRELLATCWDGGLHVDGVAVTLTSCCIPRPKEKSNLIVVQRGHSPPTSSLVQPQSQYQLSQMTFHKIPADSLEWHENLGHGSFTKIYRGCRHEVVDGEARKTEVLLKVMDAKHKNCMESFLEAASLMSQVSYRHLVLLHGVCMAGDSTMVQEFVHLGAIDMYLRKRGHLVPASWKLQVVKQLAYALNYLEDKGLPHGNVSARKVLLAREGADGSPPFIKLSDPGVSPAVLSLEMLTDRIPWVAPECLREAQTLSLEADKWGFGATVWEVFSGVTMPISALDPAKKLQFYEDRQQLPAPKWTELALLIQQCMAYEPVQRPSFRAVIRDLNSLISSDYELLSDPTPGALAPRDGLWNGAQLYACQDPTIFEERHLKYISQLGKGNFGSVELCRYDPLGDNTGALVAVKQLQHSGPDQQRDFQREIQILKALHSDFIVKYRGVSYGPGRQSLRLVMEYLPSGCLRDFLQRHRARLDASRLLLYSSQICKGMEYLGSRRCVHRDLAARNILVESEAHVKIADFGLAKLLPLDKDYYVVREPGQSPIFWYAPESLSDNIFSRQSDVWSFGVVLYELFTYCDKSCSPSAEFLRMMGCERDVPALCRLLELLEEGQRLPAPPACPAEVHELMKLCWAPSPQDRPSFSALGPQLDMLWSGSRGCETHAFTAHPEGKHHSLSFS
How it was run: (§1)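 Kinase activity is measured by separating phosphorylated from unphosphorylated peptide on a microfluidic chip. Per enzyme batch, protein concentration and incubation time are optimized to give 20%-30% substrate turnover.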

JAK3 enzyme [3] = target: T1, JAK3 enzyme; assay: JAK Caliper Enzyme Assay at 4 μM ATP; format: biochemical
How it was run: as §1

[4] = Stability of JAK3 Covalent Inhibitors in Human Whole Blood; format: in vitro ADME; settings: 1 μM test compound, 37° C., 180 min incubation; for half-life at 1 μM: both sexes, read-out: Human blood stability t1/2
Method: Stability of JAK3 Covalent Inhibitors in Rat and Human Whole Blood
Rat blood was collected from 3 male Sprague-Dawley rats (200-250 g, Charles River Laboratories) and pooled for each study. Human blood was collected from healthy subjects at the Occupational Health & Wellness Center at Pfizer, Groton, Conn. and pooled for each study. Both rat and human blood was collected freshly into K2-EDTA tubes and kept on ice. An aliquot of the blood was transferred to microtubes and pre-warmed for 10 min at 37° C. using a heat block. The test compound was then added (1 μM final concentration) and the incubation was continued for 180 min at 37° C. in duplicates. An aliquot of the incubation mixture was removed at designated time points during the course of the incubation, mixed with an aliquot of acetonitrile containing an internal standard, vortexed and centrifuged. The resulting supernatants were removed and subjected to LC-MS/MS analyses to determine parent compound concentrations. Peak area ratios of the parent compound vs the internal standard were used to determine the % of parent compound remaining vs incubation time.

[5] = human PBMC, IL-15 final 41 ng/mL, read-out: PBMC IL15_pSTAT5_IC50

Structure (SMILES) | IC50 [1, 5] [nM] | IC50 (JAK3 enzyme [2]) [nM] | IC50 (JAK3 enzyme [3]) [nM] | half-life at 1 μM [4] [h] | Human blood stability t1/2 [4] [h] | IC50 ([1]; Homo sapiens, PBMC, read-out: PBMC IL15_pSTAT5_IC50 (nM)) [nM]
C=CC(=O)N1CCCC1COc1cnc2[nH]cc(C(=O)N[C@@H](C)COC)c2n1 (mixture of isomers) [Example 7, Racemic-2-[(1-acryloylpyrrolidin-2-yl)methoxyl]-N-[(2S)-1-methoxypropan-2-yl]-5H-pyrrolo[2,3-b]pyrazine-7-carboxamide] | 403 | 106 | 1.49 | 2.63 |  | 
C=CC(=O)N1CC[C@H](Nc2cnc3[nH]cc(C(=O)NCC)c3n2)[C@@H](O)C1 (racemic) [Example 31, Trans-racemic-2-{[(3S,4S)-1-acryloyl-3-hydroxypiperidin-4-yl]amino}-N-ethyl-5H-pyrrolo[2,3-b]pyrazine-7-carboxamide] | 3870 | 47 | 0.211 | 4.9 |  | 
C=CC(=O)N1CCCC(Nc2cnc3[nH]cc(C(=O)NCC)c3n2)C1 (racemic) [Example 34, Racemic-2-[(1-acryloylpiperidin-3-yl)amino]-N-ethyl-5H-pyrrolo[2,3-b]pyrazine-7-carboxamide] | 580 | 105 | 0.501 | > 6 |  | 
C=CC(=O)N1CC[C@@H](Nc2cnc3[nH]cc(C(=O)NCC)c3n2)[C@H](C)C1 (racemic) [Example 43, Trans-racemic-2-{[(3R,4R)-1-acryloyl-3-methylpiperidin-4-yl]amino}-N-ethyl-5H-pyrrolo[2,3-b]pyrazine-7-carboxamide] | 411 | 50 | 0.258 | 3.73 |  | 
C=CC(=O)N1CCCC(Oc2cnc3[nH]cc(C(=O)N[C@@H](C)COC)c3n2)C1 (mixture of isomers) [Example 51, Racemic-2-[(1-acryloylpiperidin-3-yl)oxy]-N-[(2S)-1-methoxypropan-2-yl]-5H-pyrrolo[2,3-b]pyrazine-7-carboxamide] | 999 | 212 | 2.93 | 2.65 |  | 
C=CC(=O)N1C[C@@H](Nc2cnc3[nH]cc(C(=O)N[C@@H](C)COC)c3n2)CC[C@H]1C (racemic) [Example 65, Cis-racemic-2-{[1-acryloyl-6-methylpiperidin-3-yl]amino}-N-[(2S)-1-methoxypropan-2-yl]-5H-pyrrolo[2,3-b]pyrazine-7-carboxamide] | 585 | 53 | 1.02 | > 6 |  | 
C=CC(=O)N1C[C@@H](Nc2cnc3[nH]cc(C(=O)N[C@H](C)COC)c3n2)CC[C@H]1C (racemic) [Example 68, Cis-racemic-2-{[1-acryloyl-6-methylpiperidin-3-yl]amino}-N-[(2R)-1-methoxypropan-2-yl]-5H-pyrrolo[2,3-b]pyrazine-7-carboxamide] | 4570 | 247 | 2.17 | > 6 |  | 
C=CC(=O)N1C[C@@H](Nc2cnc3[nH]cc(C(=O)NCC)c3n2)CC[C@H]1C (racemic) [Example 74, Cis-racemic-2-{[1-acryloyl-6-methylpiperidin-3-yl]amino}-N-ethyl-5H-pyrrolo[2,3-b]pyrazine-7-carboxamide] | 1180 | 177 | 0.995 | > 6 |  | 
C=CC(=O)N1C[C@@H](Oc2cnc3[nH]cc(C(=O)N[C@@H](C)COC)c3n2)CC[C@H]1C (racemic) [Example 80, Cis-racemic-2-{[1-acryloyl-6-methylpiperidin-3-yl]oxy}-N-[(2S)-1-methoxypropan-2-yl]-5H-pyrrolo[2,3-b]pyrazine-7-carboxamide] | 829 | 160 | 1.32 | 4.8 |  | 
C=CC(=O)N1CC(Nc2ncnc3[nH]ccc23)CCC1[C@@H](C)O (mixture of isomers) [Example 109] | 320 | 155 | 0.713 |  | 2.20175 | 
C=CC(=O)N1CCN(c2cnc3[nH]cc(C(=O)NC(C)COC)c3n2)CC1(C)C (racemic) [Example 148, Racemic-2-(4-acryloyl-3,3-dimethylpiperazin-1-yl)-N-(1-methoxypropan-2-yl)-5H-pyrrolo[2,3-b]pyrazine-7-carboxamide] | 312 | 111 | 0.773 | > 6 |  | 
C=CC(=O)N1CC[C@H](Nc2cnc3[nH]cc(C(=O)N[C@@H](C)COC)c3n2)C[C@@H]1C (racemic) [Example 353, 2-(((2S,4S)-1-Acryloyl-2-methylpiperidin-4-yl)amino)-N—((S)-1-methoxypropan-2-yl)-5H-pyrrolo[2,3-b]pyrazine-7-carboxamide] | 2200 | 123 | 1.48 | > 6 |  | 
C=CC(=O)N1CC[C@H](Nc2cnc3[nH]cc(C(=O)N[C@@H](C)COC)c3n2)C[C@@H]1C (relative stereo) [Example 55, 2-{[(2S,4S)-1-acryloyl-2-methylpiperidin-4-yl]amino}-N-[(2S)-1-methoxypropan-2-yl]-5H-pyrrolo[2,3-b]pyrazine-7-carboxamide] |  | 192 | 2.21 | > 6 |  | 2260
C=CC(=O)N1CCC[C@H]1COc1cnc2[nH]cc(C(=O)N[C@@H](C)COC)c2n1 (single isomer, unassigned) [Example 8] | 133 | 46 | 0.355 | > 6 |  | 
C=CC(=O)N1CC[C@@H](CNc2cnc3[nH]cc(C(=O)N[C@@H](C)COC)c3n2)C1 (single isomer, unassigned) [Example 17] | 2560 | 37 | 0.319 | 3.16 |  | 
C=CC(=O)N1CC[C@H](CNc2cnc3[nH]cc(C(=O)N[C@@H](C)COC)c3n2)C1 (single isomer, unassigned) [Example 18] | 5990 | 96 | 0.491 | > 6 |  | 
C=CC(=O)N1CC[C@H](Nc2cnc3[nH]cc(C(=O)NCC)c3n2)[C@@H](OC)C1 (single isomer, unassigned) [Example 27] | 382 | 19 | 0.468 | > 6 |  | 
C=CC(=O)N1CCC(Oc2cnc3[nH]cc(-c4ncnn4CC)c3n2)CC1 [Example 121, 1-(4-((7-(1-ethyl-1H-1,2,4-triazol-5-yl)-5H-pyrrolo[2,3-b]pyrazin-2-yl)oxy)piperidin-1-yl)prop-2-en-1-one] |  | 921 | 6.96 | 2.67 |  | 
C=CC(=O)N1CCC(Oc2cnc3[nH]cc(-c4nnco4)c3n2)CC1 [Example 128, 1-(4-{[7-(1,3,4-Oxadiazol-2-yl)-5H-pyrrolo[2,3-b]pyrazin-2-yl]oxy}piperidin-1-yl)propan-2-en-1-one] |  | 787 | 6.67 | > 6 |  | 
C=CC(=O)N1CCC(Nc2cnc3[nH]cc(C(=O)NCCC)c3n2)CC1 [Example 170, 2-[(1-acryloylpiperidin-4-yl)amino]-N-propyl-5H-pyrrolo[2,3-b]pyrazine-7-carboxamide] |  | 4 | 0.508 | 5.13 |  | 
